Bounds are passed on as bounds.

In this experiment the target is Sequestosome-1 (Homo sapiens, UniProt Q13501). As to the kind of experiment: Inhibition of biotin-labeled Halo/His-tagged p62 (unknown origin) incubated for 30 mins by AlphaLISA competition assay. (In Alpha technology, singlet oxygen from a donor bead excites a nearby acceptor bead.)
Chain of Sequestosome-1 (Q13501 whole entry): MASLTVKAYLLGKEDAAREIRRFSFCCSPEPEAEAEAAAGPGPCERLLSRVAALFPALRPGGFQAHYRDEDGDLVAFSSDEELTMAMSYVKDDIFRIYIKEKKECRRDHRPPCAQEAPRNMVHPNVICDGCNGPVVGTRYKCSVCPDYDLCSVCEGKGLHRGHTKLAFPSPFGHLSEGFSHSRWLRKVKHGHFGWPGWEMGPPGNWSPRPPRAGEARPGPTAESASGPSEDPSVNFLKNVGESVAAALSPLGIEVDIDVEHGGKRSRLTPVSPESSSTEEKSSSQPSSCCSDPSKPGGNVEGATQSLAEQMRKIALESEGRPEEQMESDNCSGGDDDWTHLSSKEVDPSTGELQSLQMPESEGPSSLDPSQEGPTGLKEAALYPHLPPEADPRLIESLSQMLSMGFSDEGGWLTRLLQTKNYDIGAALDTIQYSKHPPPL

What is called IC50 is the concentration needed to halve the response being measured. The low end stands for inhibition by little substance, the high end for a need for much substance. Consider `CCc1cc2c(cc1N1CCN(C(=O)CCCN3C[C@H](NC(=O)[C@@H](N)CCCn4ccnc4N)C(C)(C)C3)CC1)C(C)(C)C1Nc3cc(C#N)ccc3C1C2=O` (stereo partly specified), for which the IC50 is not above 1500 nM.
The compound `CCc1cc2c(cc1N1CCN(C(=O)CCCN3CCC(C)(C)C(NC(=O)[C@@H](N)CCCn4ccnc4N)C3)CC1)C(C)(C)C1Nc3cc(C#N)ccc3C1C2=O` (stereo partly specified) came in with an IC50 not above 1500 nM.
With `CCc1cc2c(cc1N1CCN(C(=O)CCCN3C[C@H](NC(=O)[C@@H](N)CCCc4cccnc4N)C(C)(C)C3)CC1)C(C)(C)C1Nc3cc(C#N)ccc3C1C2=O` (stereo partly specified), the IC50 is not above 1500 nM.
On to `CCc1cc2c(cc1N1CCN(C(=O)CCCN3CC[C@@H](NC(=O)[C@@H](N)CCCn4ccnc4N)C3)CC1)C(C)(C)C1Nc3cc(C#N)ccc3C1C2=O` (stereo partly specified), for which the half-inhibitory concentration (IC50) was not above 1500 nM.
As for `CCc1cc2c(cc1N1CCN(C(=O)CCCN3C[C@H](NC(=O)[C@@H](N)CCCc4cncnc4N)C(C)(C)C3)CC1)C(C)(C)C1Nc3cc(C#N)ccc3C1C2=O` (stereo partly specified), the IC50 was not above 1500 nM.
For `CCc1cc2c(cc1N1CCN(C(=O)CCCN3C[C@H](NC(=O)[C@@H](N)CCCn4ccnc4N)C4(CC4)C3)CC1)C(C)(C)C1Nc3cc(C#N)ccc3C1C2=O` (stereo partly specified) the value was not above 1500 nM.

The record behind these values is ChEMBL document CHEMBL6153166, “Innovative Protein Degraders for Targeted Cancer and Viral Therapy” (ACS Med Chem Lett, 2025).
